Molecules are shown by their SMILES.

One assay addresses nsp14 methyltransferase from SARS-CoV-2 (Severe acute respiratory syndrome coronavirus 2, UniProt P0DTD1). Description: Nsp14 MTase activity inhibition in vitro (EchoMS assay). The assay is classed as biochemical.
Conditions: not given
Take `Cc1noc(Cc2ccccc2)c1CSC[C@H]1O[C@@H](n2ccc3c(N)ncnc32)[C@H](O)[C@@H]1O` [Compound 99c, (2R,3R,4S,5S)-2-(4-Amino-7H-pyrrolo[2,3-d]pyrimidin-7H-yl)-5-((((5-benzyl-3-methylisoxazol-4-yl)methyl)thio)methyl)tetrahydrofuran-3,4-diol]: the half-maximal inhibitory concentration (IC50) lay in the range of 2000 to 5000 nM.

The assay is the same for the next values; noted with them: recombinant nsp14 protein expressed in E. coli; dose-response curve.
Regarding `Cc1nsc(-c2ccccc2)c1CSC[C@H]1O[C@@H](n2cc(I)c3c(N)ncnc32)[C@H](O)[C@@H]1O` [Compound 245, (2R,3R,4S,5S)-2-(4-Amino-5-iodo-7H-pyrrolo[2,3-d]pyrimidin-7-yl)-5-((((3-methyl-5-phenylisothiazol-4-yl)methyl)thio)methyl)tetrahydrofuran-3,4-diol], the IC50 fell in the range of 30 to 100 nM.
For the compound `Cc1noc(-c2ccccc2)c1CSC[C@H]1O[C@@H](n2cc(-c3ccnn3C)c3c(N)ncnc32)[C@H](O)[C@@H]1O` [Compound 154], the IC50 lay in the range of 30 to 100 nM.
The same measure, in the same setting: with `Cc1noc(-c2ccccc2)c1CSC[C@H]1O[C@@H](n2ccc3c(N)nc(F)nc32)[C@H](O)[C@@H]1O` [Compound 198, (2R,3R,4S,5S)-2-(4-Amino-2-fluoro-7H-pyrrolo[2,3-d]pyrimidin-7-yl)-5-((((3-methyl-5-phenylisoxazol-4-yl)methyl)thio)methyl)tetrahydrofuran-3,4-diol] the figure was 30 to 100 nM; with `Cc1noc(-c2ccccc2)c1CSC[C@H]1O[C@@H](n2cc(-c3ccc(OC(F)(F)F)cc3)c3c(N)ncnc32)[C@H](O)[C@@H]1O` [Compound 146b, (2R,3R,4S,5S)-2-(4-Amino-5-(4-(trifluoromethoxy)phenyl)-7H-pyrrolo[2,3-d]pyrimidin-7-yl)-5-((((3-methyl-5-phenylisoxazol-4-yl)methyl)thio)methyl)tetrahydrofuran-3,4-diol], 100 to 500 nM; with `Cc1ncnc(-c2ccccc2)c1CSC[C@H]1O[C@@H](n2cc(C#Cc3cncnc3)c3c(N)ncnc32)[C@H](O)[C@@H]1O` [Compound 239c, (2R,3R,4S,5S)-2-(4-Amino-5-(pyrimidin-5-ylethynyl)-7H-pyrrolo[2,3-d]pyrimidin-7-yl)-5-((((4-methyl-6-phenylpyrimidin-5-yl)methyl)thio)methyl)tetrahydrofuran-3,4-diol], 30 to 100 nM.
The same measure, in the same setting: with `Cc1noc(-c2ccccc2)c1CSC[C@H]1O[C@@H](n2cc(C#Cc3cncnc3)c3c(N)ncnc32)[C@H](O)[C@@H]1O` [Compound 172b] the figure was 10 to 30 nM.
Consider `COc1ncnc(-c2ccccc2)c1CSC[C@H]1O[C@@H](n2ccc3c(N)ncnc32)[C@H](O)[C@@H]1O` [Compound 110c, (2R,3R,4S,5S)-2-(4-Amino-7H-pyrrolo[2,3-d]pyrimidin-7-yl)-5-((((4-methoxy-6-phenylpyrimidin-5-yl)methyl)thio)methyl)tetrahydrofuran-3,4-diol], for which the IC50 fell in the range of 500 to 2000 nM.
Take `Cc1noc(-c2ccccc2)c1CSC[C@H]1O[C@@H](n2cc(-c3ccc(-c4cccnc4)cc3)c3c(N)ncnc32)[C@H](O)[C@@H]1O` [Compound 187]: the IC50 was 30 to 100 nM.
Take `Cc1noc(-c2ccccc2)c1CSC[C@H]1O[C@@H](n2cc(-c3ccc(N)cc3)c3c(N)ncnc32)[C@H](O)[C@@H]1O` [Compound 157]: the IC50 fell in the range of 30 to 100 nM.
As for `Nc1ncnc2c1ccn2[C@@H]1O[C@H](CSCc2[nH]cnc2-c2ccccc2)[C@@H](O)[C@H]1O` [Compound 104c, (2R,3R,4S,5S)-2-(4-Amino-7H-pyrrolo[2,3-d]pyrimidin-7-yl)-5-((((4-phenyl-1H-imidazol-5-yl)methyl)thio)methyl)tetrahydrofuran-3,4-diol], the IC50 was 500 to 2000 nM.
On to `Cc1noc(-c2ccccc2)c1CSC[C@H]1O[C@@H](n2cc(SCc3ccccc3)c3c(N)ncnc32)[C@H](O)[C@@H]1O` [Compound 190b, (2R,3R,4S,5S)-2-(4-Amino-5-(benzylthio)-7H-pyrrolo[2,3-d]pyrimidin-7-yl)-5-((((3-methyl-5-phenylisoxazol-4-yl)methyl)thio)methyl)tetrahydrofuran-3,4-diol], for which the IC50 lay within 100 to 500 nM.
On the same count and under the same terms, with `Cc1nc(N)c2ccn([C@@H]3O[C@H](CSCc4c(C)noc4-c4ccccc4)[C@@H](O)[C@H]3O)c2n1` [Compound 208, (2R,3R,4S,5S)-2-(4-Amino-2-methyl-7H-pyrrolo[2,3-d]pyrimidin-7-yl)-5-((((3-methyl-5-phenylisoxazol-4-yl)methyl)thio)methyl)tetrahydrofuran-3,4-diol] the figure was 30 to 100 nM; with `Cc1noc(-c2ccccc2)c1CSC[C@H]1O[C@@H](n2cc(-c3cncn3C)c3c(N)ncnc32)[C@H](O)[C@@H]1O` [Compound 155, (2R,3R,4S,5S)-2-(4-Amino-5-(1-methyl-1H-imidazol-5-yl)-7H-pyrrolo[2,3-d]pyrimidin-7-yl)-5-((((3-methyl-5-phenylisoxazol-4-yl)methyl)thio)methyl)tetrahydrofuran-3,4-diol], 30 to 100 nM; with `Cn1cnc(-c2ccccc2)c1CSC[C@H]1O[C@@H](n2ccc3c(N)ncnc32)[C@H](O)[C@@H]1O` [Compound 49c], 100 to 500 nM.
Consider `Nc1ncnc2c1ccn2[C@@H]1O[C@H](CSCc2c(-c3ccccc3)noc2C2CC2)[C@@H](O)[C@H]1O` [Compound 108c, (2R,3R,4S,5S)-2-(4-Amino-7H-pyrrolo[2,3-d]pyrimidin-7-yl)-5-((((5-cyclopropyl-3-phenylisoxazol-4-yl)methyl)thio)methyl)tetrahydrofuran-3,4-diol], for which the half-inhibitory concentration (IC50) lay in the range of 100 to 500 nM.
As to `Cc1noc(-c2ccccc2)c1CSC[C@H]1O[C@@H](n2cc(-c3ccc(-c4ccccn4)cc3)c3c(N)ncnc32)[C@H](O)[C@@H]1O` [Compound 188], the IC50 fell in the range of 30 to 100 nM.
With `Cc1noc(-c2ccc3c(c2)OCO3)c1CSC[C@H]1O[C@@H](n2cc(C#Cc3cncnc3)c3c(N)ncnc32)[C@H](O)[C@@H]1O` [Compound 243c, (2R,3R,4S,5S)-2-(4-Amino-5-(pyrimidin-5-ylethynyl)-7H-pyrrolo[2,3-d]pyrimidin-7-yl)-5-((((5-(benzo[d][1,3]dioxol-5-yl)-3-methylisoxazol-4-yl)methyl)thio)methyl)tetrahydrofuran-3,4-diol], the IC50 was 10 to 30 nM.
On the same count and under the same terms, with `Cc1noc(-c2ccccc2)c1CSC[C@H]1O[C@@H](n2cc(CC(C)C)c3c(N)ncnc32)[C@H](O)[C@@H]1O` [Compound 131b, (2R,3R,4S,5S)-2-(4-Amino-5-isobutyl-7H-pyrrolo[2,3-d]pyrimidin-7-yl)-5-((((3-methyl-5-phenylisoxazol-4-yl)methyl)thio)methyl)tetrahydrofuran-3,4-diol] the figure was 100 to 500 nM; with `Cc1noc(-c2ccccc2)c1CSC[C@H]1O[C@@H](n2cc(Cc3ccccc3)c3c(N)ncnc32)[C@H](O)[C@@H]1O` [Compound 185b, (2R,3R,4S,5S)-2-(4-Amino-5-benzyl-7H-pyrrolo[2,3-d]pyrimidin-7-yl)-5-((((3-methyl-5-phenylisoxazol-4-yl)methyl)thio)methyl)tetrahydrofuran-3,4-diol], 100 to 500 nM.
`Cc1csc(-c2ccccc2)c1CSC[C@H]1O[C@@H](n2ccc3c(N)ncnc32)[C@H](O)[C@@H]1O` [Compound 53c, (2R,3R,4S,5S)-2-(4-Amino-7H-pyrrolo[2,3-d]pyrimidin-7-yl)-5-((((4-methyl-2-phenylthiophen-3-yl)methyl)thio)methyl)tetrahydrofuran-3,4-diol]: the half-inhibitory concentration (IC50) was 100 to 500 nM.
The same measure, in the same setting: with `CCC(C)c1cn([C@@H]2O[C@H](CSCc3c(C)noc3-c3ccccc3)[C@@H](O)[C@H]2O)c2ncnc(N)c12` (stereo partly drawn) [Compound 130b, (2R,3R,4S,5S)-2-(4-Amino-5-(sec-butyl)-7H-pyrrolo[2,3-d]pyrimidin-7-yl)-5-((((3-methyl-5-phenylisoxazol-4-yl)methyl)thio)methyl)tetrahydrofuran-3,4-diol] the figure was 100 to 500 nM.
Same read-out and setting: with `Cc1noc(-c2ccccc2)c1CSC[C@H]1O[C@@H](n2cc(C3=CCC(C#N)CC3)c3c(N)ncnc32)[C@H](O)[C@@H]1O` (stereo partly drawn) [Compound 141b, 4-(4-Amino-7-((2R,3R,4S,5S)-3,4-dihydroxy-5-((((3-methyl-5-phenyhsoxazol-4-yl)methyl)thio)methyl)tetrahydrofuran-2-yl)-7H-pyrrolo[2,3-d]pyrimidin-5-yl)cyclohex-3-ene-1-carbonitrile] the figure was 10 to 30 nM; with `Cc1noc(-c2ccccc2)c1CSC[C@H]1O[C@@H](n2cc(-c3ccc(C#N)cc3)c3c(N)ncnc32)[C@H](O)[C@@H]1O` [Compound 143b, 4-(4-Amino-7-((2R,3R,4S,5S)-3,4-dihydroxy-5-((((3-methyl-5-phenylisoxazol-4-yl)methyl)thio)methyl)tetrahydrofuran-2-yl)-7H-pyrrolo[2,3-d]pyrimidin-5-yl)benzonitrile], 10 to 30 nM.
`Cc1noc(-c2ccccc2)c1CSC[C@H]1O[C@@H](n2ccc3c(N)nc(Cl)nc32)[C@H](O)[C@@H]1O` [Compound 204, (2R,3R,4S,5S)-2-(4-Amino-2-chloro-7H-pyrrolo[2,3-d]pyrimidin-7-yl)-5-((((3-methyl-5-phenylisoxazol-4-yl)methyl)thio)methyl)tetrahydrofuran-3,4-diol]: the IC50 fell in the range of 10 to 30 nM.
As for `Cc1noc(-c2ccccc2)c1CSC[C@H]1O[C@@H](n2cc(-c3ccccc3)c3c(N)ncnc32)[C@H](O)[C@@H]1O` [Compound 149, (2R,3R,4S,5S)-2-(4-Amino-5-phenyl-7H-pyrrolo[2,3-d]pyrimidin-7-yl)-5-((((3-methyl-5-phenylisoxazol-4-yl)methyl)thio)methyl)tetrahydrofuran-3,4-diol], the IC50 lay within 30 to 100 nM.
The same measure, in the same setting: with `Cc1ncn(-c2ccccc2)c1CSC[C@H]1O[C@@H](n2ccc3c(N)ncnc32)[C@H](O)[C@@H]1O` [Compound 61c, (2R,3R,4S,5S)-2-(4-Amino-7H-pyrrolo[2,3-d]pyrimidin-7-yl)-5-((((4-methyl-1-phenyl-1H-imidazol-5-yl)methyl)thio)methyl)tetrahydrofuran-3,4-diol] the figure was 100 to 500 nM; with `Cc1noc(-c2ccccc2)c1CSC[C@H]1O[C@@H](n2cc(C#Cc3nc4ccccc4[nH]3)c3c(N)ncnc32)[C@H](O)[C@@H]1O` [Compound 179b, (2R,3R,4S,5S)-2-(5-((1H-Benzo[d]imidazol-2-yl)ethynyl)-4-amino-7H-pyrrolo[2,3-d]pyrimidin-7-yl)-5-((((3-methyl-5-phenylisoxazol-4-yl)methyl)thio)methyl)tetrahydrofiiran-3,4-diol], 100 to 500 nM.

A word on the IC50: it is the concentration needed to halve the response being measured.

For the origin of these results see patent publication EP4553080A1, “NUCLEOSIDE DERIVATIVES AS ANTIVIRAL AGENTS AGAINST CORONAVIRUSES” (Ustav Organicke Chemie a Biochemie AV CR, v.v.i., priority 2023, dated 2025).
